Data as given in US10322131B2, “Hydroxyacid derivatives, a process for their preparation and pharmaceutical compositions containing them” (LES LABORATOIRES SERVIER, priority 2015, dated 2019).

What was measured:
Mcl-1 protein = Mcl-1 protein (Homo sapiens, UniProt Q07820); assay: Inhibition of Mcl-1 by the fluorescence polarisation technique; type: binding; settings: fluorescence polarisation test; Fluorescein labelled ligand 1 nM, Mcl-1 protein 5 nM, ~2 hours at r.t.; read-out: IC50 (M) Mcl-1 FP
Method in brief: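 Competitive FP displacement of fluorescein-labelled peptide ligand (1 nM final) from Mcl-1 (5 nM final) in HEPES 10 mM, 150 mM NaCl, 0.05% Tween 20, pH 7.4, 5% DMSO final. Read after ~2 h at r.t.; IC50 from 11-point 4-parameter logistic fit of % mP reduction.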

H929 cells = assay: In vitro cytotoxicity (MTT) on H929 multiple myeloma tumour line; type: cell-based; settings: Microculture Tetrazolium Assay
Procedure: The cytotoxicity studies were carried out on the H929 multiple myeloma tumour line.
The cells are distributed onto microplates and exposed to the test compounds for 48 hours.
The cell viability is then quantified by a colorimetric assay, the Microculture Tetrazolium Assay (Cancer Res., 1987, 47, 939-942).

[1] = Homo sapiens, NCI-H929, exposed 48 hours

Sequence of Mcl-1 protein (Q07820 whole entry): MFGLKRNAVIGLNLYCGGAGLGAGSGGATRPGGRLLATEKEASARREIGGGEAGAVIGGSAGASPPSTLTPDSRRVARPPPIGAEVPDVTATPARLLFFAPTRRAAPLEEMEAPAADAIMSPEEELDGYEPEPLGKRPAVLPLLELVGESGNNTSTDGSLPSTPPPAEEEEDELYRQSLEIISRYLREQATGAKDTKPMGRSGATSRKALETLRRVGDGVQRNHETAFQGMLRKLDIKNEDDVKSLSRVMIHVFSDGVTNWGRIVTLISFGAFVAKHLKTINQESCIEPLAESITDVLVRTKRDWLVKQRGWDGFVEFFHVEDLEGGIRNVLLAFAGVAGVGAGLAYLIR

Cc1c(-c2c(-c3ccc(F)cc3)sc3ncnc(OC(Cc4ccccc4OCc4ccnc(-c5cccc(OCCO)c5)n4)C(=O)O)c23)ccc(OCCN2CCN(C)CC2)c1Cl [Example 30, (2R)-2-{[(5Sa)-5-{3-chloro-2-methyl-4-[2-(4-methylpiperazin-1-yl)ethoxy]phenyl}-6-(4-fluorophenyl)thieno[2,3-d]pyrimidin-4-yl]oxy}-3-[2-({2-[3-(2-hydroxyethoxy)phenyl]pyrimidin-4-yl-}methoxy)phenyl]propanoic acid]
IC50 (Mcl-1 protein): 4.5e-09 M
IC50 (H929 cells; [1]): 3.6 nM

COCCOCCOc1ccc(-c2nccc(COc3ccccc3CC(Oc3ncnc4sc(-c5ccc(F)cc5)c(-c5ccc(OCCN6CCN(C)CC6)c(Cl)c5C)c34)C(=O)O)n2)cc1 [Example 31, (2R)-2-{[(5Sa)-5-{3-chloro-2-methyl-4-[2-(4-methylpiperazin-1-yl)ethoxy]phenyl}-6-(4-fluorophenyl)thieno[2,3-d]pyrimidin-4-yl]oxy}-3-{2-[(2-{4-[2-(2-methoxyethoxy)ethoxy]phenyl}pyrimidin-4-yl)methoxy]phenyl}propanoic acid]
IC50 (Mcl-1 protein): 3.85e-09 M
IC50 (H929 cells; [1]): 1.68 nM

Cc1c(-c2c(-c3ccc(F)cc3)sc3ncnc(OC(Cc4ccccc4OCc4ccnc(-c5ccc(OCCOCCO)cc5)n4)C(=O)O)c23)ccc(OCCN2CCN(C)CC2)c1Cl [Example 32, (2R)-2-{[(5Sa)-5-{3-chloro-2-methyl-4-[2-(4-methylpiperazin-1-yl)ethoxy]phenyl}-6-(4-fluorophenl)thieno[2,3d]-pyrimidin-4-yl]oxy}-3-{2-[(2-{4-[2-(2-hydroxyethoxy)ethoxy]phenyl}pyrimidin-4-yl)methoxy]phenyl}propanoic acid]
IC50 (Mcl-1 protein): 1.53e-08 M
IC50 (H929 cells; [1]): 1.68 nM

COCCOCCOCCOc1ccc(-c2nccc(COc3ccccc3CC(Oc3ncnc4sc(-c5ccc(F)cc5)c(-c5ccc(OCCN6CCN(C)CC6)c(Cl)c5C)c34)C(=O)O)n2)cc1 [Example 33, (2R)-2-{[(5Sa)-5-{3-chloro-2-methyl-4-[2-(4-methylpiperazin-1-yl)ethoxy]phenyl}-6-(4-fluorophenyl)thieno[2,3-d]pyrimidin-4-yl]oxy}-3-(2-{[2-(4-{2-[2-(2-methoxyethoxy)ethoxy]ethoxy}phenyl)pyrimidin-4-yl]methoxy}phenyl)propanoic acid]
IC50 (Mcl-1 protein): 2.24e-08 M
IC50 (H929 cells; [1]): 1.18 nM

Cc1c(-c2c(-c3ccc(F)cc3)sc3ncnc(O[C@H](Cc4ccccc4OCc4ccnc(-c5ccc(OCCN(C)C)cc5)n4)C(=O)O)c23)ccc(OCCN2CCN(C)CC2)c1Cl [Example 34, (2R)-2-{[(5Sa)-5-{3-chloro-2-methyl-4-[2-(4-methylpiperazin-1-yl)ethoxy]phenyl}-6-(4-flurophenyl)thieno[2,3-d]pyrimidin-4-yl]oxy}-3-{2-[(2-{4-[2-(dimethylamino)ethoxy]phenyl}pyrimidin-4-yl)methoxy]phenyl}propanoic acid]
IC50 (Mcl-1 protein): 7.1e-09 M
IC50 (H929 cells; exposed 48 hours): 4.76 nM

Cc1c(-c2c(-c3ccc(F)cc3)sc3ncnc(OC(Cc4ccccc4OCc4ccnc(-c5cccc(OCC6COC(C)(C)O6)c5)n4)C(=O)O)c23)ccc(OCCN2CCN(C)CC2)c1Cl [Example 35, (2R) -2-{[(5Sa)-5-{3-chloro-2-methyl-4-[2-(4-methylpiperazin-1-yl)ethoxy]phenyl}-6-(4-fluorophenyl)thieno[2,3-d]pyrimidin-4-yl]oxy}-3-{2-[(2-{3-[(2,2-dimethyl-1,3-dioxolan-4-yl)methoxy]phenyl}pyrimidin-4-yl)methoxy]phenyl}propanoic acid]
IC50 (Mcl-1 protein): 5.15e-09 M
IC50 (H929 cells; [1]): 4.76 nM

Cc1c(-c2c(-c3ccc(F)cc3)sc3ncnc(OC(Cc4ccccc4OCc4ccnc(-c5cccc(COC(=O)NCCOCCOCCOCCO)c5)n4)C(=O)O)c23)ccc(OCCN2CCN(C)CC2)c1Cl [Example 36, (2R)-2-{[(5Sa)-5-{3-chloro-2-methyl-4-[2-(4-methylpiperazin-1-yl)ethoxy]phenyl}-6-(4-fluorophenyl)thieno[2,3-d]pyrimidin-4-yl]oxy}-3-[2-({2-[3-(15-hydroxy-3-oxo-2,7,10,13-tetraoxa-4-azapentadec-1-yl)phenyl]pyrimidin-4-yl}methoxy)phenyl]propanoic acid]
IC50 (Mcl-1 protein): 4.65e-09 M
IC50 (H929 cells; [1]): 75.9 nM

Cc1c(-c2c(-c3ccc(F)cc3)sc3ncnc(OC(Cc4ccccc4OCc4ccnc(-c5cccc(COC(=O)N6CCC(N7CCCCC7)CC6)c5)n4)C(=O)O)c23)ccc(OCCN2CCN(C)CC2)c1Cl [Example 37, (2R)-3-(2-{[2-(3-{[(1,4′-bipiperidin-1′-ylcarbonyl)oxy]methyl}phenyl)pyrimidin-4-yl]methoxy}phenyl)-2-{[(5Sa)-5-{3-chloro-2-methyl-4-[2-(4-methylpiperazin-1-yl)ethoxy]phenyl}-6-(4-fluorophenyl)thieno[2,3-d]pyrimidin-4-yl]oxy}propanoic acid]
IC50 (Mcl-1 protein): 6.3e-09 M
IC50 (H929 cells; [1]): 20.5 nM

Cc1c(-c2c(-c3ccc(F)cc3)sc3ncnc(OC(Cc4ccccc4OCc4ccnc(-c5cccc(OCCOCCOCCO)c5)n4)C(=O)O)c23)ccc(OCCN2CCN(C)CC2)c1Cl [Example 38, (2R)-2-{[(5Sa)-5-{3-chloro-2-methyl-4-[2-(4-methylpiperazin-1-yl)ethoxy]phenyl}-6-(4-fluorophenyl)thieno[2,3-d]pyrimidin-4-yl]oxy}-3-(2-{[2-(3-{2-[2-(2-hydroxyethoxy)ethoxy]ethoxy}phenyl)pyrimidin-4-yl]methoxy}phenyl)propanoic acid]
IC50 (Mcl-1 protein): 2.8e-09 M
IC50 (H929 cells; [1]): 2.76 nM

Cc1c(-c2c(-c3ccc(F)cc3)sc3ncnc(OC(Cc4ccccc4OCc4ccnc(-c5cccc(OCCOCCO)c5)n4)C(=O)O)c23)ccc(OCCN2CCN(C)CC2)c1Cl [Example 39, (2R)-2-{[(5Sa)-5-{3-chloro-2-methyl-4-[2-(4-methylpiperazin-1-yl)ethoxy]phenyl}-6-(4-fluorophenyl)thieno[2,3-d]pyrimidin-4-yl]oxy}-3-{2-[(2-{3-[2-(2-hydroxyethoxy)ethoxy]phenyl}pyrimidin-4-yl)methoxy]phenyl}propanoic acid]
IC50 (Mcl-1 protein): 3.05e-09 M
IC50 (H929 cells; [1]): 3.25 nM

COCCOCCOc1cccc(-c2nccc(COc3ccccc3CC(Oc3ncnc4sc(-c5ccc(F)cc5)c(-c5ccc(OCCN6CCN(C)CC6)c(Cl)c5C)c34)C(=O)O)n2)c1 [Example 40, (2R)-2-{[(5Sa)-5-{3-chloro-2-methyl-4-[2-(4-methylpiperazin-1-yl)ethoxy]phenyl}-6-(4-fluorophenyl)thieno[2,3-d]pyrimidin-4-yl]oxy}-3-{2-[(2-{3-[2-(2-methoxyethoxy)ethoxy]phenyl}pyrimidin-4-yl)methoxy]phenyl}propanoic acid]
IC50 (Mcl-1 protein): 3.75e-09 M
IC50 (H929 cells; [1]): 6.15 nM

Cc1c(-c2c(-c3ccc(F)cc3)sc3ncnc(OC(Cc4ccccc4OCc4ccnc(-c5cccc(COC(=O)NCCN6CCN(C)CC6)c5)n4)C(=O)O)c23)ccc(OCCN2CCN(C)CC2)c1Cl [Example 41, (2R)-2-{[(5Sa)-5-{3-chloro-2-methyl-4-[2-(4-methylpiperazin-1-yl)ethoxy]phenyl}-6-(4-fluorophenyl)thieno[2,3-d]pyrimidin-4-yl]oxy}-3-{2-[(2-{3-[({[2-(4-methylpiperazin-1-yl)ethyl]carbamoyl}oxy)methyl]phenyl}pyrimidin-4-yl)methoxy]phenyl}propanoic acid]
IC50 (Mcl-1 protein): 3.45e-09 M
IC50 (H929 cells; [1]): 90.8 nM

Cc1c(-c2c(-c3ccc(F)cc3)sc3ncnc(OC(Cc4ccccc4OCc4ccnc(-c5cccc(COC(=O)NCCN6CCOCC6)c5)n4)C(=O)O)c23)ccc(OCCN2CCN(C)CC2)c1Cl [Example 42, (2R)-2-{[(5Sa)-5-{3-chloro-2-methyl-4-[2-(4-methylpiperazin-1-yl)ethoxy]phenyl}-6-(4-fluorophenyl)thieno[2,3-d]pyrimidin-4-yl]oxy}-3-{2-[(2-{3-[({[2-(morpholin-4-yl)ethyl]carbamoyl}oxy)methyl]phenyl}pyrimidin-4-yl)methoxy]phenyl}propanoic acid]
IC50 (Mcl-1 protein): 4.45e-09 M
IC50 (H929 cells; [1]): 44.5 nM

Cc1c(-c2c(-c3ccc(F)cc3)sc3ncnc(OC(Cc4ccccc4OCc4ccnc(-c5cccc(COC(=O)NCCN(C)C)c5)n4)C(=O)O)c23)ccc(OCCN2CCN(C)CC2)c1Cl [Example 43, (2R)-2-{[(5Sa)-5-{3-chloro-2-methyl-4-[2-(4-methylpiperazin-1-yl)ethoxy]phenyl}-6-(4-fluorophenyl)thieno[2,3-d]pyrimidin-4-yl]oxy}-3-{2-[(2-{3-[({[2-(dimethylamino)ethyl]carbamoyl}oxy)methyl]phenyl}pyrimidin-4-yl)methoxy]phenyl}propanoic acid]
IC50 (Mcl-1 protein): 4.55e-09 M
IC50 (H929 cells; [1]): 31.1 nM

Cc1c(-c2c(-c3ccc(F)cc3)sc3ncnc(OC(Cc4ccccc4OCc4ccnc(-c5cccc(COC(=O)NCCN6CCCC6)c5)n4)C(=O)O)c23)ccc(OCCN2CCN(C)CC2)c1Cl [Example 44, (2R)-2-{[(5Sa)-5-{3-chloro-2-methyl-4-[2-(4-methylpiperazin-1-yl)ethoxy]phenyl}-6-(4-fluorophenyl)thieno[2,3-d]pyrimidin-4-yl]oxy}-3-{2-[(2-{3-[({[2-(pyrrolidin-1-yl)ethyl]carbamoyl}oxy)methyl]phenyl}pyrimidin-4-yl)methoxy]phenyl}propanoic acid]
IC50 (Mcl-1 protein): 3.7e-09 M
IC50 (H929 cells; [1]): 28.7 nM

COCCN(CCOC)C(=O)OCc1cccc(-c2nccc(COc3ccccc3CC(Oc3ncnc4sc(-c5ccc(F)cc5)c(-c5ccc(OCCN6CCN(C)CC6)c(Cl)c5C)c34)C(=O)O)n2)c1 [Example 45, (2R)-3-[2-({2-[3-({[bis(2-methoxyethyl)carbamoyl]oxy}methyl)phenyl]pyrimidin-4-yl}methoxy)phenyl]-2-{[(5Sa)-5-{3-chloro-2-methyl-4-[2-(4-methylpiperazin-1-yl)ethoxy]phenyl}-6-(4-fluorophenyl)thieno[2,3-d]pyrimidin-4-yl]oxy}propanoic acid]
IC50 (Mcl-1 protein): 3.2e-09 M
IC50 (H929 cells; [1]): 4.58 nM
